Results as given in patent US9149038B2, “4-amino-6-(heterocyclic)picolinates and 6-amino-2-(heterocyclic)pyrimidine-4-carboxylates and their use as herbicides” (Dow AgroSciences LLC, priority 2013, dated 2015).
Read-outs that look alike come from different tables or passages of the source.

What was measured:
[1] = system: Key Broadleaf Weed and Crop Species; experiment: Post-Emergent Test II: postemergent herbicidal activity, visual rating after 14 d (Table 7); assay type: in vivo; conditions: post-emergence, 336 h; for pest or weed control at 35 g/ha: 35 g ai/ha; for pest or weed control at 70 g/ha: 70 g ai/ha; for pest or weed control at 140 g/ha: 140 g ai/ha
Outline: (§1)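 Scoring is visual, 0-100, at 14 d after application, comparing treated with untreated plants. Application: overhead track spray at 187 L/ha onto seedlings at 1-2 true leaves, in surfactant/crop-oil carrier.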

[2] = system: Key Grass and Sedge Weeds as well as Grass Crops; experiment: Post-Emergent Test II: postemergent herbicidal activity, visual rating after 14 d (Table 8); assay type: in vivo; conditions: post-emergence, 336 h; for pest or weed control at 35 g/ha: 35 g ai/ha; for pest or weed control at 70 g/ha: 70 g ai/ha; for pest or weed control at 140 g/ha: 140 g ai/ha
Outline: as §1

[3] = lambsquarters (Chenopodium album), read-out: Visual Growth Reduction (%) 14 Days After Application CHEAL
[4] = oilseed rape, canola (Brassica napus), read-out: Visual Growth Reduction (%) 14 Days After Application BRSNN
[5] = redroot pigweed (Amaranthus retroflexus), read-out: Visual Growth Reduction (%) 14 Days After Application AMARE
[6] = sunflower (Helianthus annuus), read-out: Visual Growth Reduction (%) 14 Days After Application HELAN
[7] = velvetleaf (Abutilon theophrasti), read-out: Visual Growth Reduction (%) 14 Days After Application ABUTH
[8] = wild poinsettia (Euphorbia heterophylla), read-out: Visual Growth Reduction (%) 14 Days After Application EPHHL
[9] = barnyardgrass (Echinochloa crus-galli), read-out: Visual Growth Reduction (%) 14 Days After Application ECHCG
[10] = giant foxtail (Setaria faberi), read-out: Visual Growth Reduction (%) 14 Days After Application SETFA
[11] = maize, corn (Zea mays), read-out: Visual Growth Reduction (%) 14 Days After Application ZEAMX
[12] = rice (Oryza sativa), read-out: Visual Growth Reduction (%) 14 Days After Application ORYSA
[13] = wheat, spring (Triticum aestivum), read-out: Visual Growth Reduction (%) 14 Days After Application TRZAS
[14] = yellow nutsedge (Cyperus esculentus), read-out: Visual Growth Reduction (%) 14 Days After Application CYPES

Compound	pest or weed control at 35 g/ha [1, 3] [%]	pest or weed control at 70 g/ha [1, 3] [%]	pest or weed control at 140 g/ha [1, 3] [%]	pest or weed control at 35 g/ha [1, 4] [%]	pest or weed control at 70 g/ha [1, 4] [%]	pest or weed control at 140 g/ha [1, 4] [%]	pest or weed control at 35 g/ha [1, 5] [%]	pest or weed control at 70 g/ha [1, 5] [%]	pest or weed control at 140 g/ha [1, 5] [%]	pest or weed control at 35 g/ha [1, 6] [%]	pest or weed control at 70 g/ha [1, 6] [%]	pest or weed control at 140 g/ha [1, 6] [%]	pest or weed control at 35 g/ha [1, 7] [%]	pest or weed control at 70 g/ha [1, 7] [%]	pest or weed control at 140 g/ha [1, 7] [%]	pest or weed control at 35 g/ha [1, 8] [%]	pest or weed control at 70 g/ha [1, 8] [%]	pest or weed control at 140 g/ha [1, 8] [%]	pest or weed control at 35 g/ha [2, 9] [%]	pest or weed control at 70 g/ha [2, 9] [%]	further results
Nc1c(F)c(-c2ccc(Br)c3c2OC(F)(F)O3)nc(C(=O)O)c1Cl [Compound 80]	95 to 100	95 to 100	95 to 100	85 to 94	85 to 94	85 to 94	95 to 100	95 to 100	95 to 100	85 to 94	85 to 94	85 to 94	60 to 74	75 to 84	85 to 94	0 to 29	0 to 29	0 to 29	0 to 29	0 to 29	pest or weed control at 140 g/ha [2, 9]: 0 to 29%; pest or weed control at 35 g/ha [2, 10]: 0 to 29%; pest or weed control at 70 g/ha [2, 10]: 0 to 29%; pest or weed control at 140 g/ha [2, 10]: 0 to 29%; pest or weed control at 35 g/ha [2, 11]: 45 to 59%; pest or weed control at 70 g/ha [2, 11]: 60 to 74%; pest or weed control at 140 g/ha [2, 11]: 60 to 74%; pest or weed control at 35 g/ha [2, 12]: 0 to 29%; pest or weed control at 70 g/ha [2, 12]: 0 to 29%; pest or weed control at 140 g/ha [2, 12]: 0 to 29%; pest or weed control at 35 g/ha [2, 13]: 0 to 29%; pest or weed control at 70 g/ha [2, 13]: 0 to 29%; pest or weed control at 140 g/ha [2, 13]: 0 to 29%; pest or weed control at 35 g/ha [2, 14]: 0 to 29%; pest or weed control at 70 g/ha [2, 14]: 0 to 29%; pest or weed control at 140 g/ha [2, 14]: 0 to 29%
COC(=O)c1nc(-c2cc3c(cc2F)OCO3)c(F)c(N)c1Cl [Compound 16]	45 to 59	60 to 74	60 to 74	30 to 44	60 to 74	85 to 94	85 to 94	85 to 94	95 to 100	85 to 94	95 to 100	95 to 100	60 to 74	60 to 74	75 to 84	95 to 100	95 to 100	95 to 100	60 to 74	60 to 74	pest or weed control at 140 g/ha [2, 9]: 75 to 84%; pest or weed control at 35 g/ha [2, 10]: 60 to 74%; pest or weed control at 70 g/ha [2, 10]: 60 to 74%; pest or weed control at 140 g/ha [2, 10]: 60 to 74%; pest or weed control at 35 g/ha [2, 11]: 30 to 44%; pest or weed control at 70 g/ha [2, 11]: 45 to 59%; pest or weed control at 140 g/ha [2, 11]: 75 to 84%; pest or weed control at 35 g/ha [2, 12]: 0 to 29%; pest or weed control at 70 g/ha [2, 12]: 0 to 29%; pest or weed control at 140 g/ha [2, 12]: 0 to 29%; pest or weed control at 35 g/ha [2, 13]: 0 to 29%; pest or weed control at 70 g/ha [2, 13]: 30 to 44%; pest or weed control at 140 g/ha [2, 13]: 45 to 59%; pest or weed control at 35 g/ha [2, 14]: 0 to 29%; pest or weed control at 70 g/ha [2, 14]: 45 to 59%; pest or weed control at 140 g/ha [2, 14]: 45 to 59%
